Data as given in patent US5164390A, “6-substituted purinyl piperazine derivatives” (Ortho Pharmaceutical Corporation, priority 1991, dated 1992).
Like-named read-outs stand apart in the source and are kept apart here.

Tested on: Adult mongrel dogs
Test: Cardiotonic activity: hemodynamic and inotropic responses (MAP, HR, dP/dt, contractile force) in anesthetized dogs, iv infusion
Format: in vivo, mongrel dog
Conditions: Canis lupus familiaris, Table 2, 1.875 mpk iv
Experimental: Adult mongrel dogs were anesthetized with sodium pentobarbital (45 mg/kg, i.p.) and artificially respired. Mean arterial pressure (MAP) was recorded from a cannulated femoral artery and drugs were infused into a cannulated femoral vein. The arterial pressure pulse was used to trigger a cardiotachometer for determination of heart rate (HR). Left ventricular pressure was measured with a Millar catheter and dP/dtmax was derived. A right thoracotomy was performed and myocardial contractile force (CF) was measured with a Walton Brodie strain gauge sutured to the right ventricle. The ventricular muscle was stretched to produce a baseline tension of 100 g. A standard dose of dopamine (10-15 ug/kg/min for 3 min) was administered to determine myocardial responsiveness to inotropic stimulation.
Test compounds were solubilized in a small volume of DMF diluted to a final concentration of 10% in physiological saline. Alternatively, where possible, a soluble hydrochloride salt was prepared by addition of 0.1N HCl diluted in physiological saline. Vehicles were tested in appropriate volumes and found to exert less than a 5% effect on contractile force. For iv studies, compounds were administered by infusion pump (one drug per animal) at rates of 0.58-2.2 mL/min in three to four stepwise increasing doses. Each dose was infused over 5 min immediately after the effect of the previous dose peaked. MAP, HR, dP/dtmax and CF responses were continuously monitored on a Beckman or Gould recorder and expressed as a percent change from pre-drug control values vs. the cumulative dose of drug administered. For these studies, n represents the number of test animals used.
Quantitation of the inotropic potency was obtained by calculation of the contractile force (CF) ED50. This was defined as the dose of compound that produced a 50% increase above baseline in myocardial contractile force. The value was obtained from three to four point dose-response curves using either graphical estimation (n<3) or linear regression analysis (n≥3). Numbers in parentheses are number of animals screened.

[1] = read-out: CF (myocardial contractile force), percent change from pre-drug control
[2] = read-out: HR (heart rate), percent change from pre-drug control
[3] = read-out: MAP (mean arterial pressure), percent change from pre-drug control
[4] = read-out: dP/dt (left ventricular dP/dtmax), percent change from pre-drug control

CN(CC(O)CN1CCN(C(c2ccc(F)cc2)c2ccc(F)cc2)CC1)c1ncnc2[nH]cnc12 (stereo not drawn) [Example 28, 6-[3-[4-[Bis(4-fluorophenyl)methyl]piperazin-1-yl]-2-hydroxypropyl-N-methylamino]purine Hemihydrate]
change in vivo at 1.875 mg/kg [1]: 95% | change in vivo at 1.875 mg/kg [2]: 16% | change in vivo at 1.875 mg/kg [3]: 9% | change in vivo at 1.875 mg/kg [4]: 82%

Cn1cnc2c(SCC(O)CN3CCN(C(c4ccc(F)cc4)c4ccc(F)cc4)CC3)ncnc21 (stereo not drawn) [Example 29, 9-Methyl-6-[1-[1-[bis(4-fluorophenyl)methyl]piperazin-4-yl]-2-hydroxy-3-propanylthio]purine Hemihydrate]
change in vivo at 1.875 mg/kg [1]: 50% | change in vivo at 1.875 mg/kg [2]: -2% | change in vivo at 1.875 mg/kg [3]: -6% | change in vivo at 1.875 mg/kg [4]: 11%

Cc1nc(SCC(O)CN2CCN(C(c3ccc(F)cc3)c3ccc(F)cc3)CC2)c2nc[nH]c2n1 (stereo not drawn) [Example 30, 2-Methyl-6-[1-[1-[bis(4-fluorophenyl)methyl]piperazin-4-yl]-2-hydroxy-3-propanylthio]purine 3/4Hydrate]
change in vivo at 1.875 mg/kg [1]: 23% | change in vivo at 1.875 mg/kg [2]: 1% | change in vivo at 1.875 mg/kg [3]: 1% | change in vivo at 1.875 mg/kg [4]: 17%
